Blank lines part the entries; values can stand above or below the compound they belong to. Calls of active or inactive are those of the source. The rule behind the calls is not given here.
Assays:
[1] = test system: Mast/stem cell growth factor receptor Kit (Homo sapiens), P10721 [UNDEFINED MUTATION]; details: GISTT1, 0.1 uM
Description: Inhibition of c-KIT 560 to 578 deletion mutant in human GISTT1 cells assessed as reduction in c-KIT autophosphorylation at Y719 residue at 0.1 uM measured after 2 hrs by Western blot analysis

[2] = test system: Mast/stem cell growth factor receptor Kit (Homo sapiens), P10721 [UNDEFINED MUTATION]; details: GISTT1, 0.1 uM; remark: listed apart in the source
Description: Inhibition of c-KIT 560 to 578 deletion mutant in human GISTT1 cells assessed as reduction in c-KIT autophosphorylation at Y823 residue at 0.1 uM measured after 2 hrs by Western blot analysis

[3] = test system: Mast/stem cell growth factor receptor Kit (Homo sapiens), P10721 [UNDEFINED MUTATION]; details: GISTT1, 0.1 uM; remark: listed apart in the source
Description: Inhibition of c-KIT 560 to 578 deletion mutant in human GISTT1 cells assessed as reduction in pS6 phosphorylation at S235 residue at 0.1 uM measured after 2 hrs by Western blot analysis

[4] = test system: Mast/stem cell growth factor receptor Kit (Homo sapiens), P10721 [UNDEFINED MUTATION]; details: GISTT1, 0.1 uM; remark: listed apart in the source
Description: Inhibition of c-KIT 560 to 578 deletion mutant in human GISTT1 cells assessed as reduction in ERK phosphorylation at T204 residue at 0.1 uM measured after 2 hrs by Western blot analysis

[5] = test system: Mast/stem cell growth factor receptor Kit (Homo sapiens), P10721 [UNDEFINED MUTATION]; details: GISTT1, 0.1 uM; remark: listed apart in the source
Description: Inhibition of c-KIT 560 to 578 deletion/T670I mutant in human GISTT1 cells assessed as reduction in pS6 phosphorylation at S235 residue at 0.1 uM measured after 2 hrs by Western blot analysis

[6] = target: RAC-alpha serine/threonine-protein kinase (Homo sapiens) (UniProt P31749); details: 0.1 uM
Description: Inhibition of AKT autophosphorylation at T308 residue in human GIST5R cells harboring c-KIT 560 to 578 deletion/T670I mutant at 0.1 uM measured after 2 hrs by Western blot analysis

[7] = target: RAC-alpha serine/threonine-protein kinase (Homo sapiens) (UniProt P31749); details: GISTT1, 0.1 uM
Description: Inhibition of AKT autophosphorylation at T308 residue in human GISTT1 cells harboring c-KIT 560 to 578 deletion/T670I mutant at 0.1 uM measured after 2 hrs by Western blot analysis

[8] = test system: Mast/stem cell growth factor receptor Kit (Homo sapiens), P10721 [UNDEFINED MUTATION]; details: 0.1 uM
Description: Inhibition of c-KIT 560 to 578 deletion/T670I mutant in human GIST5R assessed as reduction in pS6 phosphorylation at S236 residue at 0.1 uM measured after 2 hrs by Western blot analysis

[9] = AUC (0 to t) in mouse at 1 mg/kg, iv by LC-MS/MS analysis; format: ADME, organism-based; details: in vivo
[10] = Tmax in mouse at 1 mg/kg, iv by LC-MS/MS analysis; format: ADME, organism-based; details: in vivo
GISTT1 [11] = format: functional, cell-based; details: Homo sapiens
[12] = target: Mast/stem cell growth factor receptor Kit (Homo sapiens, UniProt P10721); test: Inhibition of human KIT
GISTT1 [13] = format: functional, cell-based; details: Homo sapiens; remark: listed apart in the source
Mus musculus [14] = test: Antitumor activity against mouse BAF3(transformed) cells harboring c-KIT Y823D mutant implanted in BALB/c nu mouse assessed as tumor growth inhibition administered via oral gavage for 9 days; format: functional
[15] = Oral bioavailability in Beagle dog at 5 mg/kg by LC-MS/MS analysis; format: ADME, organism-based, Canis lupus familiaris; details: in vivo
GISTT1 [16] = format: functional, Homo sapiens
[17] = test system: Mast/stem cell growth factor receptor Kit (Homo sapiens), P10721 [V654A]; details: Mus musculus
Description: Inhibition of c-KIT V654A mutant in mouse BAF3(transformed) cells assessed as growth inhibition after 72 hrs by CCK8 assay

[18] = Antitumor activity against mouse BAF3(transformed) cells harboring c-KIT D820G mutant implanted in BALB/c nu mouse assessed as tumor growth inhibition at 40 mg/kg/day, po administered via gavage for 9 days relative to control; format: functional; details: 216 h, read-out: TGI
GISTT1 [19] = format: functional, Homo sapiens; details: Mus musculus, GISTT1, po, 672 h; read-out: TGI
Mus musculus [20] = format: functional, organism-based; details: BALB/c, 80 mg/kg
[21] = target: Platelet-derived growth factor receptor beta (Mus musculus) (UniProt P05622); test: Inhibition of PDGFRB in mouse BAF3(transformed) cells assessed as growth inhibition after 72 hrs by CCK8 assay
[22] = target: T1, Mast/stem cell growth factor receptor Kit (Homo sapiens, UniProt P10721, 560-578DEL/T670I); format: cell-based, GISTT1
[23] = target: Epithelial discoidin domain-containing receptor 1 (Homo sapiens, UniProt Q08345); test: Binding affinity to wild-type human partial length DDR1 (R565 to V876 residues) expressed in bacterial expression system assessed as residual binding level at 1 uM by Kinomescan method relative to control
Homo sapiens = species: Homo sapiens; format: functional, cell-based
[24] = AUC (0 to t) in Sprague-Dawley rat at 1 mg/kg, iv by LC-MS/MS analysis; format: ADME, organism-based; details: in vivo
[25] = target: T2, Proto-oncogene tyrosine-protein kinase receptor Ret (Homo sapiens, UniProt P07949); test: Binding affinity to wild-type human partial length RET (E713 to D1014 residues) expressed in bacterial expression system assessed as residual binding level at 1 uM by Kinomescan method relative to control
[26] = Tmax in Beagle dog at 5 mg/kg, po by LC-MS/MS analysis; format: ADME, organism-based, Canis lupus familiaris; details: in vivo
[27] = target: T1, Mast/stem cell growth factor receptor Kit
[28] = Antitumor activity against mouse BAF3(transformed) cells harboring c-KIT T670I mutant implanted in BALB/c nu mouse assessed as tumor growth inhibition at 100 mg/kg/day, po administered via gavage for 11 days relative to control; format: functional; details: 264 h, read-out: TGI
GISTT1 [29] = format: functional, cell-based; details: Homo sapiens; remark: listed apart in the source
[30] = target: Platelet-derived growth factor receptor beta (Homo sapiens, UniProt P09619); test: Inhibition of recombinant human His-tagged PDGFRB cytoplasmic domain (558 to 1106 residues) expressed in baculovirus expression system by Z-lyte assay
[31] = target: T2, Proto-oncogene tyrosine-protein kinase receptor Ret; test: Inhibition of recombinant human RET cytoplasmic domain (658 to 1114 residues) expressed in baculovirus expression system by Z-lyte assay
GISTT1 [32] = format: functional, Homo sapiens; details: Mus musculus, GISTT1, po, 672 h; read-out: TGI; remark: listed apart in the source

Mast/stem cell growth factor receptor Kit (Homo sapiens), P10721 [UNDEFINED MUTATION], sequence (P10721 whole entry, looked up, change not shown): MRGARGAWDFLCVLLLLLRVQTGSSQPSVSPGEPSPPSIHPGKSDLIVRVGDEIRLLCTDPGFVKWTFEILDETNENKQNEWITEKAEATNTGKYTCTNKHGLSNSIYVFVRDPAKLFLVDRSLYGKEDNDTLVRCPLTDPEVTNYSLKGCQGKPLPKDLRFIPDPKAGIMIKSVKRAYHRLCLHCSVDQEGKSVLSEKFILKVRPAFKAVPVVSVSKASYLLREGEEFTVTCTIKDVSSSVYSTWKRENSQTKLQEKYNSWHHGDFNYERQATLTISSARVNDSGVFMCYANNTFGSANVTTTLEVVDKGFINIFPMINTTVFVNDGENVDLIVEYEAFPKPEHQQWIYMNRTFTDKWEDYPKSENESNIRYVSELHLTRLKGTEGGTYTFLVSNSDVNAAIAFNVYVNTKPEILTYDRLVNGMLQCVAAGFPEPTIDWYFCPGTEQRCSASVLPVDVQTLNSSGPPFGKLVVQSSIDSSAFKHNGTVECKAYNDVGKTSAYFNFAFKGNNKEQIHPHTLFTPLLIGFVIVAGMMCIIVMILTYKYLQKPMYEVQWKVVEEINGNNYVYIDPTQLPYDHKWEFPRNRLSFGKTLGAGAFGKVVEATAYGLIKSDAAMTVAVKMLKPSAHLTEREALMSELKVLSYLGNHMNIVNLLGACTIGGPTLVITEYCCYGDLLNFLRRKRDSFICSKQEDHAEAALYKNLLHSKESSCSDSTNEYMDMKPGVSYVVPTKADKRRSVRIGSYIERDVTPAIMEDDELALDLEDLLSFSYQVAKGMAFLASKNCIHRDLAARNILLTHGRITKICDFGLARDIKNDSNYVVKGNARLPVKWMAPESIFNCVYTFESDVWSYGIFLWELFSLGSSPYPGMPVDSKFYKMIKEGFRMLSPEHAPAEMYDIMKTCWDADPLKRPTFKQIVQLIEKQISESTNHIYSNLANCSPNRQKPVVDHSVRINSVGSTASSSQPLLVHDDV
T1 sequence (P10721 whole entry, looked up, stated change not applied, the tested form may be a part): as the sequence (P10721 whole entry, looked up, change not shown) above
T2 sequence (P07949 whole entry, the tested form may be a part): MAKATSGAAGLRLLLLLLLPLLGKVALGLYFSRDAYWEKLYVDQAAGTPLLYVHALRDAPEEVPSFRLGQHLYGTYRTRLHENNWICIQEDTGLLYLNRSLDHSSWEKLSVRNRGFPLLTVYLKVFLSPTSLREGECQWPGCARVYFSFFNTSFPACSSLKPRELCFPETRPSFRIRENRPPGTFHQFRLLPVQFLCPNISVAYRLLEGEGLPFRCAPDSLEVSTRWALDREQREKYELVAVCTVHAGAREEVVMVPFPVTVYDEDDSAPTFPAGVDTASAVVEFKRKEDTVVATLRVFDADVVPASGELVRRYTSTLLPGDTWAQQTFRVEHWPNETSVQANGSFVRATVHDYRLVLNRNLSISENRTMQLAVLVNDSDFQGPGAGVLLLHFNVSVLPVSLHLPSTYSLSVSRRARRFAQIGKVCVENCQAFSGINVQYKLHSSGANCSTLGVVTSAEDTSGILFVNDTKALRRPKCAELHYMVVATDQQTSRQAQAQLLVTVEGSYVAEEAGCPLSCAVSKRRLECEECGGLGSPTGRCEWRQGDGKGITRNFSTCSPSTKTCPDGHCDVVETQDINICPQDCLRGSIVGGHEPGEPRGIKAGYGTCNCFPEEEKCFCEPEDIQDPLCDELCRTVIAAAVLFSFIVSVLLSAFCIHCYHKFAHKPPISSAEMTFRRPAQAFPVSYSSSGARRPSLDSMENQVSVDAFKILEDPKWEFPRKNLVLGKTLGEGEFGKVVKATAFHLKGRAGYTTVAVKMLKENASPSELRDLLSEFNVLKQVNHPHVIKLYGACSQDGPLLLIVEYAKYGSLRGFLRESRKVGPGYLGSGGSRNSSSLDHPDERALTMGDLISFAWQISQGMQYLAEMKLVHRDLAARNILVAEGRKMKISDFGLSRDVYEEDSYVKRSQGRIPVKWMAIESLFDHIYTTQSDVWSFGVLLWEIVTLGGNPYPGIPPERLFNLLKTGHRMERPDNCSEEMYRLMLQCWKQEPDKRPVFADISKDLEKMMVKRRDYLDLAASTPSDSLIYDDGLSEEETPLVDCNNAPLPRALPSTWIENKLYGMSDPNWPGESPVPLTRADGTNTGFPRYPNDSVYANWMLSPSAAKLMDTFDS
RAC-alpha serine/threonine-protein kinase (Homo sapiens), sequence (P31749 whole entry): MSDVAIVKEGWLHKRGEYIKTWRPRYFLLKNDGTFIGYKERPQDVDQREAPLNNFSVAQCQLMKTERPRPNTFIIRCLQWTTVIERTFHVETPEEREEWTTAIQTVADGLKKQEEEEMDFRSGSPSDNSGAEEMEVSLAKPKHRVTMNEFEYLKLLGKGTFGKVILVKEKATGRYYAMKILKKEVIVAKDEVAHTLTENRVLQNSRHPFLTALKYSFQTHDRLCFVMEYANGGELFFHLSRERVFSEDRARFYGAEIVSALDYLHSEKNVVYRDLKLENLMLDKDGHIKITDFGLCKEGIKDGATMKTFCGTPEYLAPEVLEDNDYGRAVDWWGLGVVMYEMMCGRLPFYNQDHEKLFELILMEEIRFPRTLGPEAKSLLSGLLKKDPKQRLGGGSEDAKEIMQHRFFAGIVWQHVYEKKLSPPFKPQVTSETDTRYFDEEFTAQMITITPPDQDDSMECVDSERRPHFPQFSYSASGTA
Platelet-derived growth factor receptor beta (Mus musculus), sequence (P05622 whole entry): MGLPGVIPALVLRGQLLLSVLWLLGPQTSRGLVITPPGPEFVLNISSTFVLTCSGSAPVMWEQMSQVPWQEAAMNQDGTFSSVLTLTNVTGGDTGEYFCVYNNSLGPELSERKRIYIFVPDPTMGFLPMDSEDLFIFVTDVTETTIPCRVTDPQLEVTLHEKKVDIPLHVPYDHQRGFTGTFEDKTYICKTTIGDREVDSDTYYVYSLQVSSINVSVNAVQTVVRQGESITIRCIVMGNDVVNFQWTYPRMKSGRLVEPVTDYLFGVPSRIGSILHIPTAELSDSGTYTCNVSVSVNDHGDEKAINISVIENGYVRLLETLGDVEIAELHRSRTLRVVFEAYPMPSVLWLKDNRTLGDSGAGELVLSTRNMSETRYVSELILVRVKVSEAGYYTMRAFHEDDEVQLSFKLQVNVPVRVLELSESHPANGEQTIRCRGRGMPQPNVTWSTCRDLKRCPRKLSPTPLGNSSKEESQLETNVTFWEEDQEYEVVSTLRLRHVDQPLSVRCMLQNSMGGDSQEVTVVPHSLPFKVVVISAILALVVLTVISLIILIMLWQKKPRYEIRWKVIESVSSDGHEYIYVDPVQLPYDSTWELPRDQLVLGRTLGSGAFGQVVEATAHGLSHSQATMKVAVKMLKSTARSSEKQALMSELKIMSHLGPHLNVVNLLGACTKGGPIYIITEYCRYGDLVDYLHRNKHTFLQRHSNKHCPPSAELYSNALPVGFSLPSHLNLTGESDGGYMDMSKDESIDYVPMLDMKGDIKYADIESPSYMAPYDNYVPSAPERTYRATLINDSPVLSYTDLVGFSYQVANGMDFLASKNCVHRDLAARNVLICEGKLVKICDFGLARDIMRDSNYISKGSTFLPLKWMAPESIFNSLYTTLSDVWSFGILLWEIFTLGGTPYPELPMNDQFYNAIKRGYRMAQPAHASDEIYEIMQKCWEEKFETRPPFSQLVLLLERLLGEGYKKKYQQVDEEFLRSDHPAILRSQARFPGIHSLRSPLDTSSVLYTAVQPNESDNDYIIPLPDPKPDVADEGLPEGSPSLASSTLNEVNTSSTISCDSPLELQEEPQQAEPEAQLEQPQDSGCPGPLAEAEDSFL
Mast/stem cell growth factor receptor Kit (Homo sapiens), P10721 [V654A], sequence (P10721 whole entry V654A): as the sequence (P10721 whole entry, looked up, change not shown) above, with V654A counted along it
Epithelial discoidin domain-containing receptor 1, sequence (Q08345 whole entry, the tested form may be a part): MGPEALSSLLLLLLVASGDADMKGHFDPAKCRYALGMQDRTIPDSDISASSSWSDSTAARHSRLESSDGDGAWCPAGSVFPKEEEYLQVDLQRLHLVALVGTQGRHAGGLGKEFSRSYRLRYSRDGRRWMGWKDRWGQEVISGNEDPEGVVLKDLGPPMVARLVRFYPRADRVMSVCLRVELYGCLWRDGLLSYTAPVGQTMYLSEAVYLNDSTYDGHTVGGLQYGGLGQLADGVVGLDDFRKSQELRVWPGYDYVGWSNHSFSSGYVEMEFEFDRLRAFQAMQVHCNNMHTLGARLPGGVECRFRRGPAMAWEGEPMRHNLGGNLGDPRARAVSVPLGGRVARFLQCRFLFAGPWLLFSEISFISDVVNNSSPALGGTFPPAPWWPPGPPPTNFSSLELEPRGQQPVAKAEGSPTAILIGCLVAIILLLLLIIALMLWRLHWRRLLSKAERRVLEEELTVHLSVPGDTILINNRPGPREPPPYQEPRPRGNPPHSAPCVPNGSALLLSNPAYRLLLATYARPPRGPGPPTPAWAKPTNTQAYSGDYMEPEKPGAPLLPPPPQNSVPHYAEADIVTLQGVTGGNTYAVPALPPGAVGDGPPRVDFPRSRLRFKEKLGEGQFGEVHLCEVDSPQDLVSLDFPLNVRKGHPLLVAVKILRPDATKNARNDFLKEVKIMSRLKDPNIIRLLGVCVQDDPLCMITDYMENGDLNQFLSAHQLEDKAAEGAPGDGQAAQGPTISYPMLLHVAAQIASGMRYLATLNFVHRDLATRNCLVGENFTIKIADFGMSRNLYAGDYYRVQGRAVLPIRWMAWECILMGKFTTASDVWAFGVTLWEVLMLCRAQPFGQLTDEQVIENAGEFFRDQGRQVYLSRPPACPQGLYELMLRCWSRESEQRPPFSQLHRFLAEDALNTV
Mast/stem cell growth factor receptor Kit (Homo sapiens, UniProt P10721), sequence (P10721 whole entry): as the sequence (P10721 whole entry, looked up, change not shown) above

inhibition [1]: Active
inhibition [2]: Active
inhibition [3]: Active
inhibition [4]: Active
inhibition [5]: Active
inhibition [6]: Active
inhibition [7]: inactive
inhibition [8]: Active
Structure (SMILES): CCN(CC)CCNC(=O)c1c(C)[nH]c(/C=C2\C(=O)Nc3ccc(F)cc32)c1C [SUNITINIB]

Structure (SMILES): COc1cc2nccc(Oc3ccc(NC(=O)Cc4ccc(Cl)c(C(F)(F)F)c4)cc3)c2cc1OC
AUC(0-t) [9]: 2990 ng·h/mL
Tmax [10]: 1.8 min
Activity (GISTT1 [11]): Dose-dependent effect
IC50 [12]: 4 nM
Activity (GISTT1 [13]): Dose-dependent effect
TGI (Mus musculus [14]): Dose-dependent effect
bioavailability [15]: 81%
Activity (GISTT1 [16]): 0.2 g
GI50 [17]: 320 nM
inhibition in vivo at 40 mg/kg/day [18]: 88.9%
inhibition in vivo at 20 mg/kg/day (GISTT1 [19]): 95.6%
inhibition (Mus musculus [20]): inactive
GI50 [21]: 4 nM
EC50 [22]: < 100 nM
Activity [23]: < 1%
Activity (Homo sapiens): Dose-dependent effect
AUC(0-t) [24]: 2550 ng·h/mL
Activity [25]: < 1%
Tmax [26]: 5.33 h
EC50 [27]: < 100 nM
inhibition in vivo at 100 mg/kg/day [28]: 100%
Activity (GISTT1 [29]): Dose-dependent effect
IC50 [30]: 97 nM
IC50 [31]: 34 nM
inhibition in vivo at 40 mg/kg/day (GISTT1 [32]): 96.9%

Source: ChEMBL document CHEMBL4359837, “Discovery of 2-(4-Chloro-3-(trifluoromethyl)phenyl)-N-(4-((6,7-dimethoxyquinolin-4-yl)oxy)phenyl)acetamide (CHMFL-KIT-64) as a Novel Orally Available Potent Inhibitor against Broad-Spectrum Mutants of c-KIT Kinase for Gastrointestinal Stromal Tumors” (J Med Chem, 2019)
